Measurements as given in patent US20120157466A1, “HETEROCYCLIC COMPOUNDS WITH CXCR3 ANTAGONIST ACTIVITY” (priority 2007, published 2012).
pIC50: −log10 of the molar value. Like-named read-outs stand apart in the source and are kept apart here.

Target: T1, human CXCR3 (N-delta 4) (Homo sapiens, UniProt P49682)
T1 construct: CD8 leader (N); Flag tag; expressed in transfected cells; membrane preparation
T1 sequence (P49682 5-368 limits assumed): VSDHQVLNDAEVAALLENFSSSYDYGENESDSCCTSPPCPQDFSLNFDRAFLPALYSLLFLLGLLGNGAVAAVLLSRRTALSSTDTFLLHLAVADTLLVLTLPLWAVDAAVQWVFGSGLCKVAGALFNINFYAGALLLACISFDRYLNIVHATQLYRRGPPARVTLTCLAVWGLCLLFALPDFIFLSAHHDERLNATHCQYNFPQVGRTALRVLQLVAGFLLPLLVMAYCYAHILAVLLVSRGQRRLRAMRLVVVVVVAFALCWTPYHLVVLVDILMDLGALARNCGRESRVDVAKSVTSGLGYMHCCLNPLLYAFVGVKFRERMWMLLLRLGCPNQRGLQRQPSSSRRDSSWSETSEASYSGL
Assay: Human CXCR3 (N-delta 4) Scintillation Proximity Assay (SPA), [125I] IP-10 binding
Text: The inventive compounds can readily be evaluated to determine activity at The CXCR3 receptors by known methods, such as, for example, Development of Human CXCR3 (N-delta 4) Binding Assay.
Cloning and Expression of Human CXCR3 (N-delta 4):
The DNA encoding human CXCR3 was cloned by PCR using human genomic DNA (Promega, Madison, Wis.) as a template. The PCR primers were designed based on the published sequence of human orphan receptor GPR9 (1) with incorporated restriction sites, a Kozak consensus sequence, CD8 leader and Flag tag. The PCR product was subcloned into the mammalian expression vector pME18Sneo, a derivative of the SR-alpha expression vector (designated as pME18Sneo-hCXCR3 (N-delta 4).
IL-3-dependent mouse pro-B cells Ba/F3 were transfected by electroporation in 0.4 ml Dulbecco's PBS containing 4×10^6 cells with 20 μg of pME18Sneo-hCXCR3 (N-delta 4) plasmid DNA. Cells were pulsed at 400 Volts, 100 OHMs, 960 μFd. The transfected cells were under selection with 1 mg/ml G418 (Life Technologies, Gaithersburg, Md.). G418-resistant Ba/F3 clones were screened for CXCR3 expression by specific binding of [^125I] IP-10 (NEN Life Science Products, Boston, Mass.).
Preparation of Ba/F3-hCXCR3 (N-delta 4) Membranes
Ba/F3 cells expressing human CXCR3 (N-delta 4) were pelleted and resuspended in the lysis buffer containing 10 mM HEPES, pH 7.5 and Complete protease inhibitors (1 tablet per 100 ml) (Boehringer Mannheim, Indianapolis, Ind.) at a cell density of 20×10^6 cells per ml. After 5 minutes incubation on ice, cells were transferred to 4639 cell disruption bomb (Parr Instrument, Moline, Ill.) and applied with 1,500 psi of nitrogen for 30 minutes on ice. Large cellular debris was removed by centrifugation at 1,000×g. Cell membrane in the supernatant was sedimented at 100,000×g. The membrane was resuspended in the lysis buffer supplemented with 10% sucrose and stored at −80° C. Total protein concentration of the membrane was determined by BCA method from Pierce (Rockford, Ill.).
Human CXCR3 (N-delta 4) Scintillation Proximity Assay (SPA)
For each assay point, 2 μg of membrane was preincubated for 1 hr with 300 μg wheat germ agglutinin (WGA) coated SPA beads (Amersham, Arlington Heights, Ill.) in the binding buffer (50 mM HEPES, 1 mM CaCl2, 5 mM MgCl2, 125 mM NaCl, 0.002% NaN3, 1.0% BSA) at room temperature. The beads were spun down, washed once, resuspended in the binding buffer and transferred to a 96-well Isoplate (Wallac, Gaithersburg, Md.). 25 pM of [^125I] IP-10 with tested compounds in a series of titration were added to start the reaction. After 3 hr reaction at room temperature, the amount of [^125I] IP-10 bound to the SPA beads was determined with a Wallac 1450 Microbeta counter.

[1] = human CXCR3, Ba/F3-hCXCR3 (N-delta 4) membranes, 25 pM [125I] IP-10, read-out: IC50 rating (human)
[2] = numerical IC50 values of representative compounds, read-out: IC50

SMILES	pIC50 [1]	pIC50 [2]
O=C(NCc1ccc(F)c(F)c1)c1cnc(N2CCN(C3CCN(Cc4ccc(Cl)cc4)CC3)CC2)nc1C(F)(F)F [Compound 2]	< 7.00	–
CC[C@H]1CN(c2nc3ncccc3c(=O)n2C2CC2)CCN1C1CCN(Cc2ccc(C(F)(F)F)cc2)CC1 [Compound 14]	> 7.60	8.25
CC[C@H]1CN(c2nc3ncccc3c(=O)n2C2CC2)CCN1C1CCN(Cc2ccc(Cl)c(F)c2)CC1 [Compound 15]	> 7.60	8.74
CC[C@H]1CN(c2nc3ncccc3c(=O)n2C2CC2)CCN1C1CCN(Cc2ccc(F)c(F)c2)CC1 [Compound 16]	> 7.60	–
CC[C@H]1CN(c2nc3ncccc3c(=O)n2C2CC2)CCN1C1CCN(Cc2ccc(Cl)cc2F)CC1 [Compound 17]	> 7.60	8.60
CC[C@H]1CN(c2nc3ncccc3c(=O)n2C)CCN1C1CCN(C(=O)c2ccc(Cl)nc2N)CC1 [Compound 19]	< 7.00	–
CC[C@H]1CN(c2nc3ncccc3c(=O)n2C2CC2)CCN1C1CCN(C(=O)c2ccc(Cl)nc2N)CC1 [Compound 20]	7.00 to 7.60	–
CC[C@H]1CN(c2nc3ncccc3c(=O)n2C)CCN1C1CCN(Cc2ccc(Cl)cc2)CC1 [Compound 21]	> 7.60	–
CC[C@H]1CN(c2nc3ncccc3c(=O)n2C)CCN1C1CCN(Cc2ccc(OC(F)(F)F)cc2)CC1 [Compound 22]	> 7.60	–
CC[C@H]1CN(c2nc3ncccc3c(=O)n2C)[C@H](C)CN1C1CCN(C(=O)c2ccc(Cl)cc2)CC1 [Compound 23]	< 7.00	–

Next, values leading:

pIC50 [1]	pIC50 [2]	SMILES
< 7.00	–	O=C(NCc1ccc(F)c(F)c1)c1cnc(N2CCN(C3CCN(C(=O)c4ccc(Cl)cc4)CC3)CC2)nc1C(F)(F)F [Compound 3]
< 7.00	–	C[C@H]1CN(c2nccc(C(F)(F)F)n2)CCN1C1CCN(Cc2ccc(Cl)cc2)CC1 [Compound 5]
< 7.00	–	CC[C@H]1CN(c2nc(Cl)c3nc[nH]c3n2)CCN1C1CCN(Cc2ccc(Cl)cc2F)CC1 [Compound 7]
< 7.00	–	CCNC(=O)c1cc(C)nc(N2CCN(C3CCN(Cc4ccc(Cl)cc4)CC3)[C@@H](CC)C2)n1 [Compound 8]
7.00 to 7.60	–	CC[C@H]1CN(c2nc3ncccc3c(=O)n2C)CCN1C1CCN(C(=O)c2ccc(Cl)cc2)CC1 [Compound 9]
< 7.00	–	CC[C@H]1CN(c2nc3ccccc3n2C)CCN1C1CCN(Cc2ccc(Cl)cc2F)CC1 [Compound 10]
7.00 to 7.60	–	CC[C@H]1CN(c2nc3ncccc3c(=O)n2C2CC2)CCN1C1CCN(C(=O)c2ccc(Cl)cc2)CC1 [Compound 11]
> 7.60	8.72	CC[C@H]1CN(c2nc3ncccc3c(=O)n2C2CC2)CCN1C1CCN(Cc2ccc(Cl)cc2)CC1 [Compound 12]
> 7.60	8.55	CC[C@H]1CN(c2nc3ncccc3c(=O)n2C2CC2)CCN1C1CCN(Cc2ccc(OC(F)(F)F)cc2)CC1 [Compound 13]
> 7.60	–	CC[C@H]1CN(c2nc3ncccc3c(=O)n2C2CC2)CCN1C1CCN(Cc2ccc(C#N)cc2)CC1 [Compound 18]
